In article PMC6792352, “Limited Chemical Structural Diversity Found to Modulate Thyroid Hormone Receptor in the Tox21 Chemical Library” (Environmental Health Perspectives, 2019):
Counter-ions that a name gives are not always drawn.

Test: in vitro
Conditions: rat, gh3-tre-luc cells

Row | SMILES | CC50 at 24 h (AC50 (uM) modified / 1000) [µM] | further results
1 | Cc1c(C(=O)NN2CCCCC2)nn(-c2ccc(Cl)cc2Cl)c1-c1ccc(Cl)cc1 [Rimonabant] | 13.9 | 
2 | CCCC(=O)OC(C)(C)Cc1ccccc1 [1,1-Dimethyl-2-phenylethyl butanoate] | > 90 | 
3 | C[Si](Cn1cncn1)(c1ccc(F)cc1)c1ccc(F)cc1 [Flusilazole] | > 90 | 
4 | COc1cc(C(=O)NCc2ccc(OCCN(C)C)cc2)cc(OC)c1OC [Trimethobenzamide hydrochloride] | > 20 | 
5 | O=C(CN1CCNCC1)NC1CCCCC1 [Esaprazole] | > 50 | 
6 | CC1(C)O[C@@H]2[C@@H](CO[C@@]3(COS(N)(=O)=O)OC(C)(C)O[C@@H]23)O1 [Topiramate] | > 90 | 
7 | CCCCCCCCCCCCSCCOCCOCCOCCOCCOCCOCCOCCOCCOCCO [Laureth 10s] | > 50 | 
8 | COc1cc(C(=O)OCCCN2CCCN(CCCOC(=O)c3cc(OC)c(OC)c(OC)c3)CC2)cc(OC)c1OC [Dilazep] | 7.82 | 
9 | CN1CCN(C2=Nc3ccccc3Cc3ccccc32)CC1 [Perlapine] | 25.9 | 
10 | Nc1ccc(S(=O)(=O)Nc2ccccn2)cc1 [Sulfapyridine] | > 20 | 
11 | O=C(O)C(Cl)(Cl)Cl [Trichloroacetic acid] | > 90 | 
12 | Cc1c(F)c(F)c(COC(=O)[C@H]2[C@@H](/C=C(\Cl)C(F)(F)F)C2(C)C)c(F)c1F (racemic) [Tefluthrin] | > 90 | 
13 | CC(C)(C)OC(=O)c1ccccc1C(=O)O [tert-Butyl hydrogen phthalate] | > 90 | 
14 | OCCCCCCCl [6-Chlorohexan-1-ol] | > 100 | 
15 | CC(CCC(=O)O)(c1ccc(O)cc1)c1ccc(O)cc1 [Diphenolic acid] | > 90 | 
16 | CC(=O)CCC(C)=O [2,5-Hexanedione] | > 90 | 
17 | O=C(O)COc1ccc(Cl)cc1 [4-Chlorophenoxyacetic acid] | > 90 | 
18 | Cc1cc(C)cc([N+](=O)[O-])c1 [1,3-Dimethyl-5-nitrobenzene] | > 90 | 
19 | COc1cc(C)cc(O)c1 [3-Methoxy-5-methylphenol] | > 90 | 
20 | CC(C)(C)CC(C)(C)c1cc(Cc2cc(C(C)(C)CC(C)(C)C)cc(-n3nc4ccccc4n3)c2O)c(O)c(-n2nc3ccccc3n2)c1 [Bisoctrizole] | > 50 | 
21 | c1ccc2c(c1)CCCC2C1=NCCN1 (stereo not drawn) [Tetrahydrozoline hydrochloride] | > 50 | 
22 | CC[C@H]1[C@@H]2C[C@H]3[C@@H]4N(C)c5ccccc5[C@]45C[C@@H]([C@H]2[C@H]5O)N3[C@@H]1O [Ajmaline] | > 20 | 
23 | ClCC(Cl)CCl [1,2,3-Trichloropropane] |  | CC50 at 24 h (AC50 (uM) modified / 1000, Tox21_110001=Tox21_202023, viability, 1 nM T3 present, 24 h): > 90 µM

Row | SMILES | CC50 at 24 h (AC50 (uM) modified / 1000) [µM] | further results
24 | C=C(C)C(=O)OCCCCCCCC(C)C [Isodecyl methacrylate] | > 90 | 
25 | COC(=O)c1ccccc1S(=O)(=O)NC(=O)Nc1nc(C)nc(OC)n1 [Metsulfuron-methyl] | > 90 | 
26 | c1cc2c3c(c1)ccc1cccc(c13)C2 [4H-Cyclopenta(def)phenanthrene] |  | CC50 at 24 h (AC50 (uM) modified / 1000, Tox21_110001=Tox21_201057, viability, 1 nM T3 present, 24 h): > 90 µM
27 | Cn1nnnc1SCC1=C(C(=O)O)N2C(=O)[C@@H](NC(=O)[C@H](O)c3ccccc3)[C@H]2SC1 [Cefamandole sodium] | > 20 | 
28 | C=CC[N+]1([C@H]2C[C@H]3[C@@H]4CC[C@H]5C[C@H](O)[C@@H](N6CCOCC6)C[C@]5(C)[C@H]4CC[C@]3(C)[C@H]2OC(C)=O)CCCC1 [Rocuronium bromide] | > 50 | 
29 | CCCCN1C(=O)c2ccccc2C1=O [2-Butyl-1H-isoindole-1,3(2H)-dione] | > 90 | 
30 | CN1CCCC(CN2c3ccccc3Sc3ccccc32)C1 (stereo not drawn) [Pecazine] | 16.4 | 
31 | CC(=O)OCC(=O)[C@@]12N=C(C)O[C@@H]1C[C@H]1[C@@H]3CCC4=CC(=O)C=C[C@]4(C)[C@H]3[C@@H](O)C[C@@]12C [Deflazacort] | > 90 | 
32 | CC(C)COC(=O)c1ccc(N)cc1 [Isocaine] | > 50 | 
33 | Cc1occc1C(=O)Nc1ccc(C(=O)N2CCC(F)(F)/C(=C\C(=O)N3CCC(N4CCCCC4)CC3)c3ccccc32)cc1 [YM218] | 11.8 | 
34 | CC(C)(C)C(O)/C(=C\c1ccc(Cl)cc1Cl)n1cncn1 (stereo not drawn) [Diniconazole] | 73.4 | 
35 | N#CSCc1ccccc1 [Benzyl thiocyanate] |  | CC50 at 24 h (AC50 (uM) modified / 1000, Tox21_110001=Tox21_200015, viability, 1 nM T3 present, 24 h): > 90 µM
36 | Cc1cccc(O)c1 [m-Cresol] | > 100 | 
37 | CCC(NC(C)C)C(O)c1ccc(O)c(O)c1 (stereo not drawn) [Isoetharine mesylate] | > 50 | 
38 | O=C(O)/C=C\C(=O)Nc1ccc(S(=O)(=O)Nc2nccs2)cc1 [Maleylsulfathiazole] | > 50 | 
39 | CO [Methanol] | > 90 | 
40 | CCC(C)(C)C1CCC(OC)CC1 (stereo not drawn) [1-Methoxy-4-tert-pentylcyclohexane] | > 90 | 
41 | C[C@@H]1CC[C@@]2(OC1)O[C@H]1[C@@H](O)[C@H]3[C@@H]4CC[C@H]5C[C@@H](O[C@@H]6O[C@H](CO)[C@H](O[C@@H]7O[C@H](CO)[C@@H](O)[C@H](O[C@@H]8OC[C@@H](O)[C@H](O)[C@H]8O)[C@H]7O[C@@H]7O[C@H](CO)[C@H](O)[C@H](O[C@@H]8O[C@H](CO)[C@@H](O)[C@H](O)[C@H]8O)[C@H]7O)[C@H](O)[C@H]6O)[C@H](O)C[C@]5(C)[C@H]4CC[C@]3(C)[C@H]1[C@@H]2C [Digitonin] | 1.67 | 
42 | O=C(O)CCCc1ccccc1 [Sodium 4-phenylbutyrate] | > 50 | 
43 | Cl[C@H]1[C@H](Cl)[C@@H](Cl)[C@H](Cl)[C@@H](Cl)[C@@H]1Cl [beta-Hexachlorocyclohexane] | > 90 | 
44 | Clc1cccc2ccccc12 [1-Chloronaphthalene] |  | CC50 at 24 h (AC50 (uM) modified / 1000, Tox21_110001=Tox21_200823, viability, 1 nM T3 present, 24 h): > 90 µM
45 | O=C(O)c1cc(/N=N/c2ccc(O)c(C(=O)O)c2)ccc1O [Olsalazine sodium] | > 50 | 
46 | CCCCCCCCCI [1-Iodononane] | > 90 | 

Row | SMILES | CC50 at 24 h (AC50 (uM) modified / 1000) [µM] | further results
47 | ClCBr [Bromochloromethane] |  | CC50 at 24 h (AC50 (uM) modified / 1000, Tox21_110001=Tox21_200790, viability, 1 nM T3 present, 24 h): > 100 µM
48 | c1cnc(N2CCN(Cc3ccc4c(c3)OCO4)CC2)nc1 [Piribedil] | > 50 | 
49 | CC(C)COC(=O)C(C)C [Isobutyl isobutyrate] | > 90 | 
50 | O[C@H]1[C@H]2[C@H](O)CCCN2C[C@H]1O [Swainsonine] |  | CC50 at 24 h (AC50 (uM) modified / 1000, Tox21_110001=Tox21_112058, viability, 1 nM T3 present, 24 h): > 50 µM
51 | O=C(CS)OCCOC(=O)CS [Ethane-1,2-diyl bis(sulfanylacetate)] | > 90 | 
52 | O=C(/C=C/c1ccccc1)OCc1ccccc1 [Benzyl cinnamate] | > 90 | 
53 | ON=C1CCCCC1 [Cyclohexanone oxime] | > 90 | 
54 | CC[C@H](C)[C@H](N)C(=O)O (racemic) [DL-Isoleucine] | > 50 | 
55 | COc1cccc(C(=O)CCN[C@@H](C)[C@H](O)c2ccccc2)c1 [l-Oxyfedrine hydrochloride] | 13.4 | 
56 | CSCCCN=C=S [3-(Methylthio)propyl isothiocyanate] | > 90 | 
57 | COc1ccccc1/C=C/C=O [trans-2-Methoxycinnamaldehyde] | > 90 | 
58 | O=C(CCl)CCl [1,3-Dichloropropanone] |  | CC50 at 24 h (AC50 (uM) modified / 1000, Tox21_110001=Tox21_201433, viability, 1 nM T3 present, 24 h): 32.6 µM; CC50 at 24 h (AC50 (uM) modified / 1000, Tox21_110001=Tox21_302809, viability, 1 nM T3 present, 24 h): 27.3 µM
59 | c1ccoc1 [Furan] | > 90 | 
60 | O=C1CCCCC1Cl (stereo not drawn) [2-Chlorocyclohexanone] |  | CC50 at 24 h (AC50 (uM) modified / 1000, Tox21_110001=Tox21_200522, viability, 1 nM T3 present, 24 h): > 90 µM
61 | O=C(CCCN1CCN(c2ccc(F)cc2)CC1)NC1c2ccccc2CSc2ccccc21 (stereo not drawn) [Monatepil] | 11.9 | 
62 | CCCCOC(=O)[C@@H](C)Oc1ccc(Oc2ccc(C#N)cc2F)cc1 [Cyhalofop-butyl] |  | CC50 at 24 h (AC50 (uM) modified / 1000, Tox21_110001=Tox21_301029, viability, 1 nM T3 present, 24 h): > 90 µM
63 | Nc1nc(O)c2ncn(COC(CO)CO)c2n1 [Ganciclovir] | > 20 | 
64 | O=C1NCCN1CCO [Hydroxyethyl imidazolidinone] | > 100 | 
65 | CCc1cccc(N(C)C(N)=Nc2cccc3ccccc23)c1 [Aptiganel hydrochloride] | 19.6 | 
66 | CCCCC(CC)COP(=O)(Oc1ccccc1)Oc1ccccc1 (stereo not drawn) [2-Ethylhexyl diphenyl phosphate] |  | CC50 at 24 h (AC50 (uM) modified / 1000, Tox21_110001=Tox21_303313, viability, 1 nM T3 present, 24 h): > 90 µM
67 | Cc1c[nH]c2ccccc12 [3-Methylindole] | > 50 | 
68 | CN(C)CCN(C)C [N,N,N',N'-Tetramethylethylenediamine] |  | CC50 at 24 h (AC50 (uM) modified / 1000, Tox21_110001=Tox21_200241, viability, 1 nM T3 present, 24 h): > 90 µM
